Numbering of substitutions follows the chain as printed.

The species named for assay [1] is Homo sapiens. The assay is described as follows: Ratio of IC50 for human dihydrofolate dehydrogenase Y147F mutant to IC50 for human wild type dihydrofolate dehydrogenase.
Assay [2] has as its target T1, Dihydroorotate dehydrogenase (Plasmodium falciparum, UniProt Q54A96).
T1 sequence (Q54A96 whole entry): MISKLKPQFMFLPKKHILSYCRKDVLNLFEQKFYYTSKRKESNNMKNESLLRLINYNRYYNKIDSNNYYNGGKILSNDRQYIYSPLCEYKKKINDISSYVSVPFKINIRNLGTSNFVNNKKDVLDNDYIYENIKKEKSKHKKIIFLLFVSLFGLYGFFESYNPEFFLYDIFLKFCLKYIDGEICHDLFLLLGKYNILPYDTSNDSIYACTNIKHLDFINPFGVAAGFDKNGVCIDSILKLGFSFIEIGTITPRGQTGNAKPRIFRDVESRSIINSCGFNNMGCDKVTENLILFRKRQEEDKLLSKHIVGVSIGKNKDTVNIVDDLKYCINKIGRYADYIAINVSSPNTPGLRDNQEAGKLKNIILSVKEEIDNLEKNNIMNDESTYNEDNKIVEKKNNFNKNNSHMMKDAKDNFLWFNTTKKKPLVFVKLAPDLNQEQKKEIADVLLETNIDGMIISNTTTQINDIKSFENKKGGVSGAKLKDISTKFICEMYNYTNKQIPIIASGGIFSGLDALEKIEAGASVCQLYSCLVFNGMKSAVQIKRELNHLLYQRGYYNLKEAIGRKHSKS
Kind of assay: Inhibition of Plasmodium falciparum […] dehydrogenase expressed in Escherichia coli BL21(DE3) using […] as substrate by DCIP-based colorimetric analysis.

In assay [3] the target is Dihydroorotate dehydrogenase (quinone), mitochondrial (Homo sapiens, UniProt Q02127). Kind of assay: Inhibition of human […] dehydrogenase expressed in Escherichia coli BL21(DE3) using […] as substrate by DCIP-based colorimetric analysis.
In assay [4] the test system is T2, Dihydroorotate dehydrogenase (quinone), mitochondrial (Plasmodium falciparum (isolate 3D7)), Q08210 [F188Y].
T2 sequence (whole entry): T1 sequence (Q54A96 whole entry) with F188Y
The assay is described as follows: Inhibition of Plasmodium falciparum […] dehydrogenase F188Y mutant expressed in Escherichia coli BL21(DE3) using […] as substrate at 100 uM by DCIP-based colorimetric analysis.

The species entered for assay [5] is Homo sapiens. Kind of assay: Ratio of IC50 for human […] dehydrogenase H56A mutant to IC50 for human wild type […] dehydrogenase.

Sequence of Dihydroorotate dehydrogenase (quinone), mitochondrial (Q02127 whole entry): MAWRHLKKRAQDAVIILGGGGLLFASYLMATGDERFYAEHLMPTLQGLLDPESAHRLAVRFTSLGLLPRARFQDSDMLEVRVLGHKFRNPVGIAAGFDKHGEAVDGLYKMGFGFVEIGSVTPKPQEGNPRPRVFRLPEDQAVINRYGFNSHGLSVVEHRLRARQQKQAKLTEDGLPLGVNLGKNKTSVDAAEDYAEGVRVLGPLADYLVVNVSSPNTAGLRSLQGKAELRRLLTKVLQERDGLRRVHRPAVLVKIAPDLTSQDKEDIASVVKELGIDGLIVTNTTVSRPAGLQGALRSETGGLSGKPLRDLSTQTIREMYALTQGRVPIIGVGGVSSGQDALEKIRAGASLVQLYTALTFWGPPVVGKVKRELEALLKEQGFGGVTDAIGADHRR

For `CCc1cc(O)n2nc(SCc3cc(Cl)ccc3Cl)nc2n1`, the Ratio IC50 in the assay filed under Homo sapiens [1] was determined as 1.9; in the assay listed under Homo sapiens [5], 17. Further, the IC50 in assay [2] was more than 100000 nM; in assay [3], 13 nM. This compound also had an inhibition in assay [4] of less than 50%.

The record behind these values is ChEMBL document CHEMBL2177061, “Factors influencing the specificity of inhibitor binding to the human and malaria parasite dihydroorotate dehydrogenases” (J Med Chem, 2012).
